Measurements reported in article PMC8597046, “Use of Mixture Dosing and Nonlinear Mixed Effect Modeling of Eight Environmental Contaminants in Rabbits to Improve Extrapolation Value of Toxicokinetic Data” (Environmental Health Perspectives, 2021).

Tests used:
[1] = Chronic exposure: daily oral mixture for 17 wk, steady-state serum concentrations; details: for concentration at 17 wk: female, New Zealand white (INRA 1777 line), rabbit, in vivo, po
Method: The objective of this preliminary experiment was to check the ability of our approach to determine the loading and maintenance doses of the eight compounds to be administered simultaneously by oral route to reproduce in female rabbits targeted serum concentrations. The experiment was carried out on thirty-two 2-wk old female New Zealand white rabbits (INRA 1777 line) randomly allocated to a treatment and control groups of 16 rabbits weighing 309±45g and 298±62g , respectively. The treated rabbits were orally administrated a mixture of the eight compounds at a dosage corresponding to the sum of the loading and daily maintenance doses followed by daily administrations of the maintenance dose for 17 wk (see the “Estimation of the doses” section). The control group was orally administrated the vehicle for the same duration.
The volume of the maintenance dosing solution ( 1mL/kg ) was weekly adjusted to the mean BW estimated from the known pattern of growth of the INRA 1777 rabbit line. Oral dosing and antemortem blood sampling were performed as previously described.
Blood samples were left to clot for about 20–30 min at ambient temperature and centrifuged for 20 min at 3,000×g at 25°C. The separated serum was stored in glass tubes at −20°C until assayed.

[2] = Estimation of loading and daily maintenance doses and NLME model simulations; set-up: species or system female rabbits; details: oral; for Computed maintenance dose: daily; for Computed maintenance dose / Computed loading dose: scaled to the targeted CSS of Table 6; for Daily maintenance dose: to maintain serum concentration of 1 ng/mL, daily CL×Css/F; for Daily maintenance dose / Loading dose: DEHP dose for MEHP in serum; for Loading dose: to rapidly attain serum concentration of 1 ng/mL, Vss×Css/F
Method: The ultimate goal of this TK investigation was to compute a dosage regimen that allowed targeted steady-state serum concentrations to be attained rapidly for a planned TK/TD trial on the reprotoxic effect of a mixture of environmental contaminants in female rabbits. […] With that in mind, the loading and the daily maintenance doses of each compound were evaluated using Equations 12 and 13, respectively.
This risk was also the reason why the NLME model was employed to simulate the time development of the amounts of compounds in the central and peripheral compartments following administration of the daily maintenance dose of each compound over the same duration.
The loading and maintenance doses computed to ensure a nominal CSS of 1 ng/mL were scaled to determine the doses to be administrated by oral route to female rabbits to maintain the targeted CSS .

[3] = Nonlinear mixed effect (NLME) compartmental modeling of merged IV and oral serum concentrations; details: for tvK12 (distribution rate constant) / tvK21 (distribution rate constant) / tvVc (volume of the central compartment) / tvKabs (rate constant of absorption) / tvK10 (elimination rate constant from the central compartment): population primary parameter, typical value; for tvKabs (rate constant of absorption) / AUCVO: MEHP after oral DEHP; for Volume(s) of the peripheral compartment: for PFOA first peripheral compartment; for AUCIV: dosing time to infinity after intravenous dosing; for AUCVO: dosing time to infinity after oral dosing
Description: A nonlinear mixed effect (NLME) modeling approach was used to analyze simultaneously all data obtained from the different rabbits after both IV and oral administrations and to provide robust estimates of the typical TK parameters.
The primary parameters of the model, namely the volume of distribution of the central compartment (V1), the first-order rate constants ( K10 , K12 , K21 , and Kabs plus K13 , K31 for PFOA) and the bioavailability (F) and their associated precisions [standard error (SE)] were estimated by minimizing an objective function value (OFV) expressed as minus twice the log of the likelihood estimation ( −2LL ). […] Marginal likelihood was approximated by using the Laplacian engine by default and, when this engine was unable to determine the SE of the estimate, the Quasi-Random Parametric Expectation Maximization (QRPEM) was selected.
Between subject variability (BSV) of the parameters was measured using the exponential model θparameter_i=θtv_parameter×exp (ηi), where θparameter_i is the parameter estimated for the ith individual, θtv_parameter is the typical population value of the parameter, and ηi is the deviation associated with the ith individual from the corresponding value of the parameter at the population level.
The distribution of ηi was assumed to be normal with a mean of 0 and a variance ω² . BSV was reported as a coefficient of variation (CV) in the original scale CV(%)=100× exp (ω^2)−1 .
The residual variance was modeled using a combined additive and proportional error model Cobsij=Cpredij(1 + ε1ij) + ε2ij, where Cobsij and Cpredij are respectively the jth observed and predicted concentrations for the ith individual, and ε1ij and ε2ij are the multiplicative and additive residual errors.
Secondary parameters were calculated from the population primary parameters.
The clearance values (CL) were estimated using Equation 5: (5) CL=K10×V1, where V1 is the volume of the central compartment and K10 is the elimination rate constant from the central compartment.
The volume of the peripheral compartment (V2) was estimated with Equation 6: (6) V2=V1×(K12/K21), where K12 and K21 are the distribution rate constants between the central and the peripheral compartments.
The clearance of distribution (Q) was estimated using Equation 7: (7) Q=K12×V1, with […] and K12 as defined above.
The volume of distribution associated with the terminal phase was estimated with Equation 10: (10) VZ=CL/λZ, with λZ as defined above.
The AUC was computed as a secondary parameter using Equation 11: (11) AUC=Dose/CL.
The terminal half-life was estimated with Equation 1, as previously described.

[4] = female, New Zealand white (INRA 1777 line), rabbit, in vivo
[5] = female, New Zealand white (INRA 1777 line), rabbit, in vivo, po, Oral bioavailability (F), NLME model
[6] = female, New Zealand white, rabbit, in vivo
[7] = female, New Zealand white, rabbit, in vivo, Clearance, population secondary parameter, mean
[8] = female, New Zealand white, rabbit, in vivo, iv
[9] = female, New Zealand white, rabbit, in vivo, po
[10] = female, New Zealand white, rabbit, in vivo, po, Bioavailability, population secondary parameter, mean, as fraction
[11] = population secondary parameter, mean
[12] = female, New Zealand white (INRA 1777 line), rabbit, in vivo, po, Oral bioavailability (F)
[13] = female, New Zealand white, rabbit, in vivo, po, Bioavailability
[14] = terminal, population secondary parameter, mean

| SMILES | concentration at 17 wk [1] [ng/mL] | Computed maintenance dose [2] [µg/kg] | Computed loading dose [2] | Daily maintenance dose [2] [µg/kg] | Loading dose [2] [µg/kg] | Vd [3, 4] [L/kg] | k el [3, 4] [s⁻¹] | MRT [3, 6] [h] | half-life [3, 6] [days] | AUC [3, 8] [µM·h] | AUC [3, 9] [µM·h] | AUCVO/dose ([3]; oral dosing) | tvK12 (distribution rate constant) ([3]; mean) [h⁻¹] | tvK21 (distribution rate constant) ([3]; mean) [h⁻¹] | tvVc (volume of the central compartment) ([3]; mean) [L/kg] | tvKabs (rate constant of absorption) ([3]; mean) [h⁻¹] | Volume(s) of the peripheral compartment [3, 11] [L/kg] | AUCIV ([3]; population secondary parameter) [µmol·h/L] | AUCVO ([3]; population secondary parameter) | tvK10 (elimination rate constant from the central compartment) ([3]; mean) [h⁻¹] | other results |
| --- | --- | --- | --- | --- | --- | --- | --- | --- | --- | --- | --- | --- | --- | --- | --- | --- | --- | --- | --- | --- | --- |
| Brc1ccc(Oc2ccc(Br)cc2Br)c(Br)c1 [BDE-47, 2,2′,4,4′-tetrabromodiphenyl ether] | 0.16 ± 0.058 | 1.3 | 7.5 µg/kg | 8.4 | 47 | 45 | 1.8e-05 | 133 | 6.79 | 29 | 71 | 2.97 μmol×h/L per μmol/kg BW | 0.0697 | 0.009154 | 5.188 | 0.02289 | 39 |  |  |  | bioavailability [3, 5]: > 85%; clearance [3, 7]: 5.67 mL/min/kg; bioavailability [3, 10]: 96% |
| O=S(=O)(c1ccc(O)cc1)c1ccc(O)cc1 [BPS, bisphenol S] |  | 122 | 32 µg/kg | 122 | 32 |  |  |  |  |  |  |  |  |  | 1.681 |  |  | 3.3 | 3.6 µmol·h/L | 1.895 | Mean serum concentration of (unconjugated) BPS, estimated ([1]; estimated from total BPS and 7% unconjugated fraction, targeted CSS 1 ng/mL): 0.98 ng/mL; tvKabs (rate constant of absorption), fixed ([3]; fixed to 10, estimation of Kabs converging toward infinity): 10 h⁻¹; Oral systemic exposure ([3]; oral, dose-normalised AUC): 0.20 μmol/h/L per μmol/kg BW; MRT [3, 11]: 6.3 h |
| Clc1c(Cl)c(Cl)c(Cl)c(Cl)c1Cl [HCB, hexachlorobenzene] | 2.9 ± 1.5 |  |  |  |  | 35 | 9.74e-07 |  | 20 | 4.5 | 271 |  | 0.05299 | 0.03851 | 14.63 | 0.3488 | 20 |  |  |  | VSS [3, 4]: 33 to 45 L/kg; tvf (ilogit of the oral bioavailability) ([3]; female, New Zealand white (INRA 1777 line), rabbit, in vivo, po): 0.03625; bioavailability [3, 12]: ~50%; Clearance [3, 6]: 0.05 to 0.34 L/kg/h; Clearance(s) of distribution [3, 6]: 0.78 L/kg/h; clearance [3, 6]: 0.85 mL/min/kg; MRT ([3]; female, New Zealand white, rabbit, in vivo, MRT): > 800 h; bioavailability [3, 13]: 51% |
| CCCCC(CC)COC(=O)c1ccccc1C(=O)O (stereo not shown) [MEHP, mono(2-ethylhexyl)phthalate] |  |  |  |  |  |  |  |  |  |  |  |  | 0.285 |  | 0.329 |  | 3.5 | 9.0 | 53 µmol·h/L | 1.411 | Observed CSS ([1]; serum, mean±SD, n=16, after 17 weeks of oral mixture, MEHP after DEHP dosing): 51±28 (MEHP) ng/mL; F value for MEHP (fraction of the DEHP dose metabolized into MEHP) ([3]; MEHP IV vs DEHP oral, NLME model): 87%; Clearance [3, 11]: 0.47 L/kg/h; MRT [3, 11]: 8.2 h; MRT ([3]; population secondary parameter, mean, listed as mono-2-ethylhexyl phthalate): a few hours; half-life [3, 14]: 1.29 days |
| O=C(O)C(F)(F)C(F)(F)C(F)(F)C(F)(F)C(F)(F)C(F)(F)C(F)(F)F [PFOA, perfluorooctanoic acid] | 43 ± 9.4 | 9.5 | 10 µg/kg | 0.18 | 0.19 | 0.19 | 2.08e-05 | 25 | 3.83 | 26 | 128 | 133 μmol×h/L per μmol/kg BW | 0.047 | 0.127 | 0.101 | 1.408 | 0.037 |  |  |  | tvK13 (distribution rate constant) ([3]; PFOA 3-compartments model): 0.0039 h⁻¹; tvK31 (distribution rate constant) ([3]; PFOA 3-compartments model): 0.0080 h⁻¹; Volume(s) of the peripheral compartment, second value ([3]; PFOA three-compartment model, second peripheral compartment): 0.049 L/kg; bioavailability [3, 5]: 100%; clearance [3, 7]: < 0.167 mL/min/kg; bioavailability [3, 10]: 100% |
| O=S(=O)(O)C(F)(F)C(F)(F)C(F)(F)C(F)(F)C(F)(F)C(F)(F)C(F)(F)C(F)(F)F [nPFOS, linear isomer of perfluorooctane sulfonate] |  |  |  | 0.0077 | 0.37 |  |  |  |  |  |  | 3,115 μmol×h/L per μmol/kg BW | 0.153 | 0.581 | 0.290 | 0.252 | 0.077 | 355 | 1,246 μmol×h/L | 0.00111 | MRT ([3]; NLME model): 1140 h; Oral bioavailability (F) ([3]; NLME model): total; Terminal HL ([3]; NLME model): 33 days; bioavailability ([3]; oral, population secondary parameter, mean, as fraction): 1; Clearance [3, 11]: 0.00032 L/kg/h; VSS [3, 11]: 0.37 L/kg; half-life [3, 14]: 33 days |
| ClC(Cl)=C(c1ccc(Cl)cc1)c1ccc(Cl)cc1 [pp′DDE, 1,1-Dichloro-2,2-bis(p-chlorophenyl)ethylene] | 25 ± 12 | 95 | 1,039 μg/kg | 4.5 | 49 | 35 | 1.33e-05 | 261 | 11.3 | 17 | 77 |  | 0.08353 | 0.00729 | 2.821 | 0.01994 | 32 |  |  |  | bioavailability [3, 12]: 72%; clearance ([3]; female, New Zealand white, rabbit, in vivo, Clearance): 2.17 mL/min/kg; AUCVO/dose [3, 9]: 5.35 μmol×h/L per μmol/kg BW; bioavailability [3, 13]: 72% |
